Test results from patent US12221453B2, “Substituted pyrazolo[5′,1′:2,3]pyrimido[5,4-b][1,4]oxazines as TYK2 inhibitors” (TAKEDA PHARMACEUTICAL COMPANY LIMITED, priority 2018, dated 2025).

test system: IL-12 induced STAT4 phosphorylation mediated by TYK2/JAK2; test: IL-12 induced pSTAT4 in human PBMC; assay type: cell-based; conditions: 1 hr compound, 1.7 ng/mL IL-12 for 30 minutes
Procedure: Human PBMC were isolated from buffy coat and are stored frozen for assays as needed. […] 15 μL of compound or DMSO was added to the well at the desired concentrations and incubated at 1 hr at 37° C. 15 μL of stimulus (final concentration of 1.7 ng/mL IL-12) was added for 30 minutes prior to pSTAT4 and total STAT4 analysis using cell lysates prepared and analyzed by MSD reagents as per manufacturer protocol. The final DMSO concentration of compound in the assay was 0.1%. The IL-12 induced pSTAT4 assay evaluates the inhibition of IL-12 induced STAT4 phosphorlyation mediated by TYK2/JAK2 ([…] complex).

IC50, < 0.1 µM:
CNc1cc(-c2cn(CCOC)c3ncccc23)nc2c(C(=O)N[C@H]3CC[C@@H]3OC)cnn12 [Compound I-923]
CNc1cc(-c2cn(C3COC3)c3ncccc23)nc2c(C(=O)NC3CC[C@@H]3F)cnn12 (stereo partly drawn) [Compound I-507]
CNc1cc(Nc2cccn([C@H]3[C@@H]4COC[C@@H]43)c2=O)nc2c(C(=O)NC3CCC3)cnn12 [Compound I-142]
CNc1cc(-c2cn([C@H]3CCOC3)c3ncccc23)nc2c(C(=O)NC3CC[C@@H]3OC)cnn12 (stereo partly drawn) [Compound I-612]
CNc1cc(Nc2cccn([C@@H]3CCCOC3)c2=O)nc2c(C(=O)NC3CC[C@@H]3F)cnn12 (stereo partly drawn) [Compound I-194]
CNc1cc(Nc2cccn([C@H]3C[C@@H]3F)c2=O)nc2c(C(=O)N[C@H]3CC[C@@H]3F)cnn12 [Compound I-149]
CNc1cc(-c2cn([C@H]3COC[C@@H]3OC)c3ncccc23)nc2c(C(=O)N[C@@H]3CC[C@@H]3F)cnn12 [Compound I-530]
CNc1cc(-c2cnc3n([C@@H]4CCOC4)cccc2-3)nc2c(C(=O)NC3CC[C@@H]3OC)cnn12 (stereo partly drawn) [Compound I-995]
CNc1cc(-c2cnc3n([C@@H]4COC[C@H]4O)cccc2-3)nc2c(C(=O)NC3CC[C@@H]3F)cnn12 (stereo partly drawn) [Compound I-827]
CNc1cc(-c2cnc3n([C@@H]4CN(C)C[C@H]4OC)cccc2-3)nc2c(C(=O)NC3CC[C@@H]3OC)cnn12 (stereo partly drawn) [Compound I-943]
CNc1cc(Nc2cccn([C@H]3C[C@@H](OC)C3)c2=O)nc2c(C(=O)N[C@H]3CCC3(F)F)cnn12 [Compound I-296]
O=C(N[C@@H]1CCC1(F)F)c1cnn2c3c(c(-c4cn(C5COC5)c5ncccc45)nc12)OCCN3 [Compound I-772]
CNc1cc(Nc2cccn(-c3ocnc3C)c2=O)nc2c(C(=O)NC3CC[C@@H]3F)cnn12 (stereo partly drawn) [Compound I-185]
CNc1cc(-c2cn([C@@H]3COC[C@H]3OC)c3ncccc23)nc2c(C(=O)NC3CC[C@H]3F)cnn12 (stereo partly drawn) [Compound I-531]
CNc1cc(-c2cn(C3COC3)c3ncccc23)nc2c(C(=O)N[C@H]3CC[C@H]3O)cnn12 [Compound I-555]
CNc1ccc(-c2cc(NC)n3ncc(C(=O)N[C@H]4CC[C@H]4O)c3n2)n2ccnc12 [Compound I-485]
CNc1cc(-c2cn(C(C)C)c3nnccc23)nc2c(C(=O)NC3CC[C@@H]3OC)cnn12 (stereo partly drawn) [Compound I-993]
CNc1cc(-c2cn(C3COC3)c3ncccc23)nc2c(C(=O)NC3CCC3(F)F)cnn12 (stereo not drawn) [Compound I-673]
CNc1cc(Nc2cccn([C@H]3CC[C@H]3O)c2=O)nc2c(C(=O)NC3CCC3(F)F)cnn12 (stereo partly drawn) [Compound I-286]
CNc1ccc(-c2cc(NC)n3ncc(C(=O)NC4CC[C@H]4F)c3n2)n2ccnc12 (stereo partly drawn) [Compound I-483]
CNc1cc(Nc2cccn([C@H]3[C@@H]4COC[C@@H]43)c2=O)nc2c(C(=O)N[C@@H]3CC[C@@]3(C)OC)cnn12 [Compound I-410]
CNc1cc(-c2cn(C(C)C)c3nnccc23)nc2c(C(=O)N[C@@H]3CC[C@H]3OC)cnn12 [Compound I-1009]
CNc1cc(Nc2cccn([C@@H]3CCC[C@H](C#N)C3)c2=O)nc2c(C(=O)N[C@@H]3CC[C@H]3OC)cnn12 [Compound I-260]
CNc1cc(Nc2cccn([C@H]3CCCC[C@H]3O)c2=O)nc2c(C(=O)N[C@@H]3CC[C@H]3F)cnn12 [Compound I-214]
CNc1cc(-c2cn([C@H]3CCOC[C@@H]3F)c3ncccc23)nc2c(C(=O)NC3CC[C@@H]3OC)cnn12 (stereo partly drawn) [Compound I-651]
CNc1cc(Nc2cccn([C@H]3C[C@H](F)C3)c2=O)nc2c(C(=O)N[C@H]3C[C@@H]3OC)cnn12 [Compound I-138]
CNc1cc(-c2cnc3n([C@@H]4COC[C@H]4OC)cccc2-3)nc2c(C(=O)N[C@@H]3CC[C@H]3OC)cnn12 [Compound I-884]
CNc1cc(-c2cnc3n([C@H]4COC[C@@H]4O)cccc2-3)nc2c(C(=O)N[C@@H]3CC[C@H]3OC)cnn12 [Compound I-878]
CNc1cc(-c2cn([C@H]3COC[C@H]3F)c3ncccc23)nc2c(C(=O)N[C@H]3CC[C@H]3O)cnn12 [Compound I-574]
CNc1cc(-c2cnc3n([C@@H]4CCOC[C@H]4O)cccc2-3)nc2c(C(=O)N[C@@H]3C[C@@H]3F)cnn12 [Compound I-824]
CNc1cc(Nc2cccn(C3CCOCC3)c2=O)nc2c(C(=O)NC3CC[C@@]3(C)OC)cnn12 (stereo partly drawn) [Compound I-405]
CNc1cc(Nc2cccn([C@H]3[C@@H]4COC[C@@H]43)c2=O)nc2c(C(=O)NC3CC[C@H]3F)cnn12 (stereo partly drawn) [Compound I-203]
CNc1cc(-c2cnc3n([C@@H]4CCOC[C@H]4OC)cccc2-3)nc2c(C(=O)N[C@@H]3CC[C@H]3OC)cnn12 [Compound I-896]
O=C(NC1CCC1(F)F)c1cnn2c3c(c(Nc4cccn([C@H]5[C@@H]6COC[C@@H]65)c4=O)nc12)OCCN3 (stereo partly drawn) [Compound I-768]
CNc1cc(-c2cn(C3COC3)c3ncccc23)nc2c(C(=O)N[C@@H]3CCC3(F)F)cnn12 [Compound I-675]
CNc1cc(Nc2cccn([C@H]3CCC[C@@H](C#N)C3)c2=O)nc2c(C(=O)N[C@H]3CCC3(F)F)cnn12 [Compound I-331]
CNc1cc(Nc2cccn(C(C)C)c2=O)nc2c(C(=O)NC3CC[C@]3(C)O)cnn12 (stereo partly drawn) [Compound I-339]
CNc1cc(-c2cn(C3CCCC3)c3ncccc23)nc2c(C(=O)NC3CCC3(F)F)cnn12 (stereo not drawn) [Compound I-680]
CNc1cc(Nc2cccn([C@H]3C[C@H](F)C3)c2=O)nc2c(C(=O)N[C@H]3CC[C@H](O)C3)cnn12 [Compound I-436]
CNc1cc(Nc2cccn(-c3ncccc3F)c2=O)nc2c(C(=O)NC3CC[C@H]3OC)cnn12 (stereo partly drawn) [Compound I-265]
CNc1cc(-c2cn([C@H]3CCOC[C@H]3OC)c3ncccc23)nc2c(C(=O)N[C@@H]3CCC3(F)F)cnn12 [Compound I-811]
CNc1cc(Nc2cccn([C@H]3CCCC[C@H]3O)c2=O)nc2c(C(=O)NC3CC[C@]3(C)OC)cnn12 (stereo partly drawn) [Compound I-423]
CNc1cc(-c2cn([C@@H]3COC[C@H]3OC)c3ccccc23)nc2c(C(=O)N[C@@H]3CC[C@H]3OC)cnn12 [Compound I-746]
CNc1cc(Nc2cccn([C@H]3CC[C@H](OC)CC3)c2=O)nc2c(C(=O)N[C@H]3CC[C@@H]3F)cnn12 [Compound I-225]
CNc1ccc(-c2cc(NC)n3ncc(C(=O)N[C@@H]4C[C@@H]4F)c3n2)n2ccnc12 [Compound I-479]
CNc1cc(-c2cn(CCOC)c3ncccc23)nc2c(C(=O)NC3CC[C@@H]3OC)cnn12 (stereo partly drawn) [Compound I-795]
CNc1cc(Nc2cccn([C@H]3C[C@@H](OC)C3)c2=O)nc2c(C(=O)NC3CC[C@@H]3F)cnn12 (mixture of isomers) [Compound I-173]
CC(C)n1cc(-c2nc3c(C(=O)NC4CC[C@H]4O)cnn3c3c2OCCN3)c2cccnc21 (stereo partly drawn) [Compound I-753]
CNc1cc(-c2cn([C@@H]3COC[C@H]3OC)c3ncccc23)nc2c(C(=O)NC3CC[C@@H]3OC)cnn12 (stereo partly drawn) [Compound I-636]
CNc1cc(-c2cn([C@@H]3CCOC[C@H]3F)c3ncccc23)nc2c(C(=O)N[C@H]3CC[C@H]3O)cnn12 [Compound I-918]
CNc1cc(-c2cnc3n([C@H]4COC[C@@H]4O)cccc2-3)nc2c(C(=O)NC3CC3)cnn12 [Compound I-816]
CNc1cc(Nc2cccn([C@H]3CCC[C@@H](C#N)C3)c2=O)nc2c(C(=O)NC3CCC3(F)F)cnn12 (stereo partly drawn) [Compound I-330]
CO[C@@H]1CCC1NC(=O)c1cnn2c3c(c(Nc4cccn([C@H]5[C@@H]6COC[C@@H]65)c4=O)nc12)OCCN3 (stereo partly drawn) [Compound I-762]
CNc1cc(Nc2cccn([C@H]3CCCC[C@H]3O)c2=O)nc2c(C(=O)N[C@H]3CC[C@]3(C)OC)cnn12 [Compound I-424]
CNc1cc(Nc2cccn([C@H]3CCC[C@H](OC)C3)c2=O)nc2c(C(=O)NC3CC[C@@H]3F)cnn12 (stereo partly drawn) [Compound I-230]
CNc1cc(-c2cn([C@H]3[C@@H]4COC[C@@H]43)c3ncccc23)nc2c(C(=O)N[C@H]3CC[C@@H]3OC)cnn12 [I-793, 5-(1-((1R,5S,6r)-3-oxabicyclo[3.1.0]hexan-6-yl)-1H-pyrrolo[2,3-b]pyridin-3-yl)-N-((1S,2S)-2-methoxycyclobutyl)-7-(methylamino)pyrazolo[1,5-a]pyrimidine-3-carboxamide]
CNc1cc(-c2cn([C@H]3CC(=O)N(C)C3)c3ncccc23)nc2c(C(=O)N[C@H]3CC[C@@H]3OC)cnn12 [Compound I-1024]
